This experiment deals with hIgG expression. As to the kind of experiment: Expression enhancers in the transient transfection system, hIgG yield. The format is cell-based. Conditions: enhancer added alone to transient transfection; vs. control with neither Enhancer 1 nor Enhancer 2.

The structures appear in SMILES notation.

Description: Components were formulated into 2 stable Enhancer solutions.

For `CCC(=O)[O-].[Na+]` [Enhancer 2, sodium propionate], the “effect on hIgG expression” value was “no strong effect alone”.

With `CCCC(CCC)C(=O)O` [Enhancer 1, valproic acid], the “effect on hIgG expression” value is listed as “doubles hIgG expression”.

The record behind these values is patent US11498949B2, “System and method for high-yield transient expression in mammalian cells” (LIFE TECHNLOLOGIES CORPORATION, priority 2012, dated 2022).
